Results on nine compounds are retold here after US20120277184A1 (priority 2004, published 2012).

Read-outs that look alike come from different tables or passages of the source. Where only a bound is given, the exact number is not on record here.

The conditions of data set [1]: rat, in vivo; cited from earlier work.
For data set [2], the target named is LeTx (Bacillus anthracis, UniProt P13423). To be noted: raw 264.7 cells.
The target of data set [3] is T1, α-HL (Staphylococcus aureus, UniProt P09616).
T1 sequence (P09616 27-319 limits assumed): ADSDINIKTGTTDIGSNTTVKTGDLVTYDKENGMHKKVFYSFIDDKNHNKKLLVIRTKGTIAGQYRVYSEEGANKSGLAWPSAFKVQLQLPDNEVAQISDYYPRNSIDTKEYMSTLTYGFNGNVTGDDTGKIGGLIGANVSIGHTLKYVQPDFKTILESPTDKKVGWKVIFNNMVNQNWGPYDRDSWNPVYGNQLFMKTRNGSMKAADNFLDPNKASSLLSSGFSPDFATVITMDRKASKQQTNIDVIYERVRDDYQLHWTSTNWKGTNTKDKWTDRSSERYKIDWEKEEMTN
Data set [4] has as its target T1, α-HL. The class given is biochemical. To be noted: read-out: Inhibition of trans-membrane conductance IC50.
The target in data set [5] is ε-toxin (Clostridium perfringens, UniProt Q02307).
Sequence of ε-toxin (Q02307 46-306 limits assumed): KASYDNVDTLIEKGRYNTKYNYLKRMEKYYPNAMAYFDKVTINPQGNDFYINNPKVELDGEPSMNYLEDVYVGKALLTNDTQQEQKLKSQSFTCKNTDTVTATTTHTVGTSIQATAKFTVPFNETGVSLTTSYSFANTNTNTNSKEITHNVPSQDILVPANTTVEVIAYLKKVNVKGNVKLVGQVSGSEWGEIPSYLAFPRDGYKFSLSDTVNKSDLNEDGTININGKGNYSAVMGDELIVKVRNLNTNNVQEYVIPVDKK

Sequence of LeTx (P13423 197-764 limits assumed): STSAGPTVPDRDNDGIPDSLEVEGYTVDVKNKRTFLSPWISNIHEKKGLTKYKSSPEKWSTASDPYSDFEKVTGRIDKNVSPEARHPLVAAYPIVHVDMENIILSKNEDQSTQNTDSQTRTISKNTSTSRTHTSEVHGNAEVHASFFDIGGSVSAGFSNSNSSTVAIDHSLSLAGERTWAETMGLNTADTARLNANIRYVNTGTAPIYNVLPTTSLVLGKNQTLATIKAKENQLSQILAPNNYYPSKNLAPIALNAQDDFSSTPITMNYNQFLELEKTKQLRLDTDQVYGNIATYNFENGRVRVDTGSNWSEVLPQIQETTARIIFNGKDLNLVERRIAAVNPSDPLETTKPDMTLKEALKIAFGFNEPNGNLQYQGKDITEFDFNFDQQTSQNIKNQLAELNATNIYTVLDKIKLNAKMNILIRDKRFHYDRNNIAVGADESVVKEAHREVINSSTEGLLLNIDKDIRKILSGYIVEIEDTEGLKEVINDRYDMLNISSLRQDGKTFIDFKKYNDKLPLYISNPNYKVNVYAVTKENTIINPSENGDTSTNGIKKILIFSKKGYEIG

In the case of β-cyclodextrin [β-CD], the Bioavailability in data set [1] was 0.1-4%.

In data set [2], `O[C@@H]1[C@@H](O)[C@H]2O[C@H]3[C@H](O)[C@@H](O)[C@@H](O[C@H]4[C@H](O)[C@@H](O)[C@@H](O[C@H]5[C@H](O)[C@@H](O)[C@@H](O[C@H]6[C@H](O)[C@@H](O)[C@@H](O[C@H]7[C@H](O)[C@@H](O)[C@@H](O[C@H]8[C@H](O)[C@@H](O)[C@@H](O[C@@H]1[C@@H](CNCc1ccc(Cl)cc1)O2)O[C@@H]8CNCc1ccc(Cl)cc1)O[C@@H]7CNCc1ccc(Cl)cc1)O[C@@H]6CNCc1ccc(Cl)cc1)O[C@@H]5CNCc1ccc(Cl)cc1)O[C@@H]4CNCc1ccc(Cl)cc1)O[C@@H]3CNCc1ccc(Cl)cc1` [Compound 9] had an IC50 of 5.4 ± 0.8 µM.

Take `CC(C)(C)OC(=O)NC(CCCN)C(=O)NCC1OC2OC3C(CNC(=O)C(CCCN)NC(=O)OC(C)(C)C)OC(OC4C(CNC(=O)C(CCCN)NC(=O)OC(C)(C)C)OC(OC5C(CNC(=O)C(CCCN)NC(=O)OC(C)(C)C)OC(OC6C(CNC(=O)C(CCCN)NC(=O)OC(C)(C)C)OC(OC7C(CNC(=O)C(CCCN)NC(=O)OC(C)(C)C)OC(OC8C(CNC(=O)C(CCCN)NC(=O)OC(C)(C)C)OC(OC1C(O)C2O)C(O)C8O)C(O)C7O)C(O)C6O)C(O)C5O)C(O)C4O)C(O)C3O` (stereo not shown) [Compound 11]: in data set [3], it took 3.3 µM to reach half-maximal inhibition (IC50) and the “Inhibition of α-HL hemolytic activity (in words)” value is listed as “inhibits α-HL”. Besides, the IC50 in data set [4] was around 0.05 µM.

As for `Cc1ccc(CNCC2OC3OC4C(CNCc5ccc(C)cc5)OC(OC5C(CNCc6ccc(C)cc6)OC(OC6C(CNCc7ccc(C)cc7)OC(OC7C(CNCc8ccc(C)cc8)OC(OC8C(CNCc9ccc(C)cc9)OC(OC9C(CNCc%10ccc(C)cc%10)OC(OC2C(O)C3O)C(O)C9O)C(O)C8O)C(O)C7O)C(O)C6O)C(O)C5O)C(O)C4O)cc1` (stereo not shown) [Compound 5105], in data set [5], the IC50 amounted to 20 ± 10 µM and the “Inhibition of ε-toxin cytotoxicity / protection of MDCK cells (in words)” value is recorded as “protection”.

The compound `Cc1ccc(CNC[C@H]2O[C@@H]3O[C@H]4[C@H](O)[C@@H](O)[C@@H](O[C@H]5[C@H](O)[C@@H](O)[C@@H](O[C@H]6[C@H](O)[C@@H](O)[C@@H](O[C@H]7[C@H](O)[C@@H](O)[C@@H](O[C@H]8[C@H](O)[C@@H](O)[C@@H](O[C@H]9[C@H](O)[C@@H](O)[C@@H](O[C@H]2[C@H](O)[C@H]3O)O[C@@H]9CNCc2ccc(C)cc2)O[C@@H]8CNCc2ccc(C)cc2)O[C@@H]7CNCc2ccc(C)cc2)O[C@@H]6CNCc2ccc(C)cc2)O[C@@H]5CNCc2ccc(C)cc2)O[C@@H]4CNCc2ccc(C)cc2)cc1` [Compound 8] showed a concentration for half-maximal inhibition (IC50) in data set [2] of 0.5 ± 0.2 µM.

With `CC(C)(C)OC(=O)NC(CCCN)C(=O)NCC1OC2OC3C(CNC(=O)C(CCCN)NC(=O)OC(C)(C)C)OC(OC4C(CNC(=O)C(CCCN)NC(=O)OC(C)(C)C)OC(OC5C(CNC(=O)C(CCCN)NC(=O)OC(C)(C)C)OC(OC6C(CNC(=O)C(CCCN)NC(=O)OC(C)(C)C)OC(OC7C(CNC(=O)C(CCCN)NC(=O)OC(C)(C)C)OC(OC8C(CNC(=O)C(CCCN)NC(=O)OC(C)(C)C)OC(OC9C(CNC(=O)C(CCCN)NC(=O)OC(C)(C)C)OC(OC1C(O)C2O)C(O)C9O)C(O)C8O)C(O)C7O)C(O)C6O)C(O)C5O)C(O)C4O)C(O)C3O` (stereo not shown) [Compound 12], in data set [3], the IC50 was above 100 µM.

With `O[C@@H]1[C@@H](O)[C@H]2O[C@H]3[C@H](O)[C@@H](O)[C@@H](O[C@H]4[C@H](O)[C@@H](O)[C@@H](O[C@H]5[C@H](O)[C@@H](O)[C@@H](O[C@H]6[C@H](O)[C@@H](O)[C@@H](O[C@H]7[C@H](O)[C@@H](O)[C@@H](O[C@H]8[C@H](O)[C@@H](O)[C@@H](O[C@@H]1[C@@H](CNCc1ccc(Br)cc1)O2)O[C@@H]8CNCc1ccc(Br)cc1)O[C@@H]7CNCc1ccc(Br)cc1)O[C@@H]6CNCc1ccc(Br)cc1)O[C@@H]5CNCc1ccc(Br)cc1)O[C@@H]4CNCc1ccc(Br)cc1)O[C@@H]3CNCc1ccc(Br)cc1` [Compound 10], the “Inhibition of α-HL hemolytic activity (in words)” value in data set [3] is reported as “did not display any activity”. The same compound displayed a 50% inhibitory concentration (IC50) in data set [3] (erythrocytes) above 100 µM.

Regarding `OC1C2OC(CNCc3ccc(Br)cc3)C(OC3OC(CNCc4ccc(Br)cc4)C(OC4OC(CNCc5ccc(Br)cc5)C(OC5OC(CNCc6ccc(Br)cc6)C(OC6OC(CNCc7ccc(Br)cc7)C(OC7OC(CNCc8ccc(Br)cc8)C(OC8OC(CNCc9ccc(Br)cc9)C(O2)C(O)C8O)C(O)C7O)C(O)C6O)C(O)C5O)C(O)C4O)C(O)C3O)C1O` (stereo not shown) [Compound 5137], 20 ± 1 µM corresponded to half-maximal inhibition in data set [5] (IC50).

Compound `OC1C2OC(CNCc3ccc(Cl)cc3)C(OC3OC(CNCc4ccc(Cl)cc4)C(OC4OC(CNCc5ccc(Cl)cc5)C(OC5OC(CNCc6ccc(Cl)cc6)C(OC6OC(CNCc7ccc(Cl)cc7)C(OC7OC(CNCc8ccc(Cl)cc8)C(OC8OC(CNCc9ccc(Cl)cc9)C(O2)C(O)C8O)C(O)C7O)C(O)C6O)C(O)C5O)C(O)C4O)C(O)C3O)C1O` (stereo not shown) [Compound 5130] returned a half-maximal inhibitory concentration (IC50) in data set [5] of 21 ± 9 µM.
